Measured values: ChEMBL document CHEMBL4033631, “Discovery of benzothiazole derivatives as novel non-sulfamide NEDD8 activating enzyme inhibitors by target-based virtual screening” (Eur J Med Chem, 2017)

Legend:
HCT-116 = experiment: Antitumor activity against human HCT116 cells after 72 hrs by MTT assay; assay type: functional, cell-based; settings: HCT-116, 72 h
U2OS = experiment: Antitumor activity against human U2OS cells after 72 hrs by MTT assay; assay type: functional, cell-based
Homo sapiens [1] = organism: Homo sapiens; experiment: Inhibition of NAE in human HCT116 cells assessed as decrease in NEDD8-UBC12 complex formation after 4 hrs by Western blot analysis; assay type: cell-based
Homo sapiens [2] = organism: Homo sapiens; experiment: Inhibition of NAE in human HCT116 cells assessed as decrease in NEDD8 level after 4 hrs by Western blot analysis; assay type: cell-based

Compound | IC50 (HCT-116) [µM] | IC50 (U2OS) [µM] | inhibition (Homo sapiens [1]) | inhibition (Homo sapiens [2])
O=C(Cc1nnc(NC(=O)c2ccc(Cl)cc2)s1)N/N=C/c1ccc(O)cc1O | 38.1 | 40.4 | – | –
O=C(CSc1ccc(Cl)cc1)Nc1ccc2nc(NC(=O)c3ccc(C(F)(F)F)cc3)sc2c1 | 0.93 | 2.89 | – | –
CCCC(=O)Nc1nc2ccc(NC(=O)CSc3ccc(Cl)cc3)cc2s1 | 2.12 | 3.19 | – | –
CCn1c(CNc2ccc(OC)cc2)nnc1SCC(=O)Nc1ccc(Cl)cc1 | 39.5 | 63.5 | – | –
O=C(Cc1nnc(NC(=O)c2ccc(Cl)cc2)s1)N/N=C/c1ccc(O)cc1 | 68.3 | > 100 | – | –
Oc1ccc(Cl)cc1/C=N/c1ccc(-c2nc3ccccc3o2)c(O)c1 | 20.1 | 21.7 | – | –
Cc1cc(C)cc(C(=O)Nc2nc3ccc(NC(=O)CSc4ccc(Cl)cc4)cc3s2)c1 | 65 | > 100 | – | –
Cn1c(CNC(=O)c2cccs2)nnc1SCC(=O)Nc1ccc(Cl)cc1 | 91.4 | > 100 | – | –
NS(=O)(=O)OC[C@@H]1C[C@@H](n2ccc3c(N[C@H]4CCc5ccccc54)ncnc32)C[C@@H]1O [PEVONEDISTAT] | 0.19 | 0.16 | – | –
Cc1ccc(SCC(=O)Nc2ccc3nc(NC(=O)c4ccc(C(F)(F)F)cc4)sc3c2)c(C)c1 | 0.32 | 1 | – | –
O=C(CSC1CCCCC1)Nc1ccc2nc(NC(=O)c3ccc(C(F)(F)F)cc3)sc2c1 | 21 | 12.3 | – | –
O=C(CSc1cccc(O)c1)Nc1ccc2nc(NC(=O)c3cc(Cl)cc(Cl)c3)sc2c1 | 5.44 | 1.53 | – | –
O=C(CSc1cccc(O)c1)Nc1ccc2nc(NC(=O)c3ccc(C(F)(F)F)cc3)sc2c1 | 0.51 | 0.63 | Dose-dependent effect | Dose-dependent effect
O=C(CSc1nnc(NC(=O)COc2ccccc2)s1)Nc1ccc(Br)cc1 | > 100 | > 100 | – | –
O=C(CSc1ncc[nH]1)Nc1ccc2nc(NC(=O)c3ccc(C(F)(F)F)cc3)sc2c1 | 2.69 | 18.8 | – | –
O=C(Cn1cc(F)c(=O)n(CC(=O)Nc2ccc(Br)cn2)c1=O)Nc1ccc(Br)cn1 | 11.1 | 5.14 | – | –
Cc1nc(Nc2nc3ccccc3o2)nc(C)c1C(=O)Nc1ccc(F)cc1 | 15.3 | 79.3 | – | –
O=C(CSc1cccc(O)c1)Nc1ccc2nc(NC(=O)c3ccc(F)cc3)sc2c1 | 6.17 | 5.12 | – | –
COc1ccc(C(=O)Nc2nnc(SCC(=O)Nc3ccc(Br)cc3)s2)cc1OC | 66.6 | > 100 | – | –

Compound | IC50 (HCT-116) [µM] | IC50 (U2OS) [µM] | inhibition (Homo sapiens [1]) | inhibition (Homo sapiens [2])
O=C(CSc1ccc(Cl)cc1)Nc1ccc2nc(NC(=O)c3ccc(F)cc3)sc2c1 | 1.36 | 2.51 | – | –
O=C(CSc1cccc(O)c1)Nc1ccc2nc(NC(=O)c3ccc4ccccc4c3)sc2c1 | 4.25 | 1.77 | – | –
O=C(CSc1cccc(O)c1)Nc1ccc2nc(NC(=O)c3cccs3)sc2c1 | 7.02 | 63 | – | –
Cn1c(CNC(=O)c2cccs2)nnc1SCC(=O)Nc1cccc(Cl)c1 | > 100 | > 100 | – | –
O=C(CSc1ncccn1)Nc1ccc2nc(NC(=O)c3ccc(C(F)(F)F)cc3)sc2c1 | 2.22 | 28.1 | – | –
Nc1ccc(SCC(=O)Nc2ccc3nc(NC(=O)c4ccc(C(F)(F)F)cc4)sc3c2)cc1 | 0.1 | 1.22 | Dose-dependent effect | Dose-dependent effect
COc1ccc(/C=N/NC(=O)c2ccc(NC(=O)c3ccccc3Br)cc2)cc1 | > 100 | 93.1 | – | –
O=C(CSc1ccc(Cl)cc1)Nc1ccc2nc(NC(=O)c3ccc4ccccc4c3)sc2c1 | 4.04 | 14.5 | – | –
O=C(CSc1ncccc1C(=O)O)Nc1ccc2nc(NC(=O)c3ccc(C(F)(F)F)cc3)sc2c1 | 2.3 | 13.6 | – | –
Cc1ccc(S(=O)(=O)Nc2nc(C)c(NC(=O)Nc3ccc(Cl)cc3)s2)cc1 | 47.4 | 88.8 | – | –
O=C(CSc1ccc2ccccc2c1)Nc1ccc2nc(NC(=O)c3ccc(C(F)(F)F)cc3)sc2c1 | 0.3 | 3.94 | Dose-dependent effect | Dose-dependent effect
CC(O)c1cccc(NC(=O)c2cc(Br)ccc2Br)c1 (configuration not stated) | > 100 | > 100 | – | –
O=C(CSc1nc2ccccc2[nH]1)Nc1ccc2nc(NC(=O)c3ccc(C(F)(F)F)cc3)sc2c1 | 3.76 | 7.11 | – | –
Cc1ccc(C(=O)Nc2nc3ccc(NC(=O)CSc4cccc(O)c4)cc3s2)cc1 | 7.73 | 12.4 | – | –
CCCC(=O)Nc1nc2ccc(NC(=O)CSc3cccc(O)c3)cc2s1 | 10.6 | 10.1 | – | –
Cc1cc(C)cc(C(=O)Nc2nc3ccc(NC(=O)CSc4cccc(O)c4)cc3s2)c1 | 5.13 | 2.82 | – | –
COc1cc(CNC(C)(C)CO)ccc1OCC(=O)Nc1ccc(C)cc1 | > 100 | > 100 | – | –
Cc1ccc(C(=O)Nc2nc3ccc(NC(=O)CSc4ccc(Cl)cc4)cc3s2)cc1 | 2.12 | 3.19 | – | –
O=C(CSc1cccc(O)c1)Nc1ccc2nc(NC(=O)c3ccccc3)sc2c1 | 41 | > 100 | – | –
